Data from ChEMBL document CHEMBL1147314, “A pentacyclic triterpene with anti-inflammatory and analgesic activity from the roots of Commiphora merkeri” (1989).

Legend:
Rattus norvegicus [1] = experiment: Antiinflammatory activity in rat assessed as inhibition of carrageenan-induced edema at 100 mg/kg; type: functional
Rattus norvegicus [2] = experiment: Analgesic activity in rat assessed as inhibition of writhing at 100 mg/kg; type: functional

| SMILES | inhibition in vivo at 100 mg/kg (Rattus norvegicus [1]) | inhibition in vivo at 100 mg/kg (Rattus norvegicus [2]) |
| --- | --- | --- |
| CCCCC1C(=O)N(c2ccccc2)N(c2ccccc2)C1=O [PHENYLBUTAZONE] | 64% | – |
| CC(=O)Oc1ccccc1C(=O)O [ASPIRIN] | – | 85% |
| CC1(C)CC[C@]2(C)CC[C@]3(C)C(=CC[C@@H]4[C@@]5(C)C[C@@H](O)[C@H](O)[C@@](C)(CO)[C@@H]5CC[C@]43C)[C@@H]2C1 | 28% | 37% |
